Measured values as given in paper PMC10342707, “Identification of Regulatory Molecular “Hot Spots” for LH/PLOD Collagen Glycosyltransferase Activity” (International Journal of Molecular Sciences, 2023).

Legend:
LH3/PLOD3 [1] = molecular target: T1, LH3/PLOD3 (Homo sapiens, UniProt O60568); test: differential scanning fluorimetry; assay type: binding; conditions: 50 mM MnCl2, 5 mM ligand, 25 mM HEPES, 500 mM NaCl, pH 8
T1 construct: 6xHis-tag and TEV site; secreted from HEK293-F cells
T1 sequence (O60568 25-738): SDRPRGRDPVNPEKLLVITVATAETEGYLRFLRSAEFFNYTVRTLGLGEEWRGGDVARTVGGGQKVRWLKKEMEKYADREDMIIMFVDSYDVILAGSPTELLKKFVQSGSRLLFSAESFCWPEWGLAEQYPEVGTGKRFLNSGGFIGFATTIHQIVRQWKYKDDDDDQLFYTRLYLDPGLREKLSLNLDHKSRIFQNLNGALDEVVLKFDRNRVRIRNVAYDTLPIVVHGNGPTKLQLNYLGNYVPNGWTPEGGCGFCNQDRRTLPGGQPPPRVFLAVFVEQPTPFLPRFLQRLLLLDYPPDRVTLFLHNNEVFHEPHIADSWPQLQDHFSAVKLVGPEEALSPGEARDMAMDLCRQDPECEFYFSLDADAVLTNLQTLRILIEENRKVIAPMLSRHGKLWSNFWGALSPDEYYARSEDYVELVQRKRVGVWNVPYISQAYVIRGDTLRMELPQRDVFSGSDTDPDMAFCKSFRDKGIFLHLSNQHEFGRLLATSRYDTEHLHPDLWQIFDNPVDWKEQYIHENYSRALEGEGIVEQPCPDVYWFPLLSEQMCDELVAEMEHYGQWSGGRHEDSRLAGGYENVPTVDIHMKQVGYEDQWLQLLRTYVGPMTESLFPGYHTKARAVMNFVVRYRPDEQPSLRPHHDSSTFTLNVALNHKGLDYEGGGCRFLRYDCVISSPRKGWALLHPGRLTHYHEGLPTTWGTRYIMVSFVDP

LH3/PLOD3 [2] = molecular target: T1, LH3/PLOD3; test: luminescence-based Glc-T competition assay; assay type: biochemical; conditions: read-out: UDP-Glc (IC50)
Description: luminescence-based Glc-T competition assay on LH3/PLOD3

thermal shift (LH3/PLOD3 [1]) | IC50 (LH3/PLOD3 [2]) [mM] | SMILES
3–3.5 °C |  | O=c1ccn([C@@H]2O[C@H](COP(=O)(O)OP(=O)(O)O)[C@@H](O)[C@H]2O)c(=O)[nH]1 [UDP]
1–1.5 °C | > 10 | O=C(O)[C@H]1O[C@H](OP(=O)(O)OP(=O)(O)OC[C@H]2O[C@@H](n3ccc(=O)[nH]c3=O)[C@H](O)[C@@H]2O)[C@H](O)[C@@H](O)[C@@H]1O [UDP-GlcA]
 | 3.17 ± 0.211 | O=c1ccn([C@@H]2O[C@H](COP(=O)(O)OP(=O)(O)O[C@H]3OC[C@@H](O)[C@H](O)[C@H]3O)[C@@H](O)[C@H]2O)c(=O)[nH]1 [UDP-Xyl]
